Reference: ChEMBL document CHEMBL3585315, “Discovery of mammalian target of rapamycin (mTOR) kinase inhibitor CC-223” (J Med Chem, 2015)
pIC50: −log10 of the molar value.

How the values were obtained:
cells = settings: Homo sapiens, PC-3, 1 h
[1] = Metabolic stability in rat S9 fraction assessed as compound remaining measured at 60 mins; format: ADME; settings: read-out: Stability
[2] = Cmax in rat at 5 mg/kg, po; format: ADME, organism-based; set-up: dose 5 mg/kg, route oral; settings: in vivo
[3] = AUC (0 to infinity) in rat at 5 mg/kg, po; format: ADME, organism-based; set-up: dose 5 mg/kg, time infinity, route oral; settings: in vivo
Mus musculus [4] = species on record: Mus musculus; assay: animal or person; settings: PC-3, po, 8 h, read-out: INH
[5] = target: Phosphatidylinositol 4,5-bisphosphate 3-kinase catalytic subunit alpha isoform (Homo sapiens, UniProt P42336); assay: Inhibition of PI3K-alpha (unknown origin) by mobility shift assay
Chain of Phosphatidylinositol 4,5-bisphosphate 3-kinase catalytic subunit alpha isoform (P42336 whole entry, canonical isoform): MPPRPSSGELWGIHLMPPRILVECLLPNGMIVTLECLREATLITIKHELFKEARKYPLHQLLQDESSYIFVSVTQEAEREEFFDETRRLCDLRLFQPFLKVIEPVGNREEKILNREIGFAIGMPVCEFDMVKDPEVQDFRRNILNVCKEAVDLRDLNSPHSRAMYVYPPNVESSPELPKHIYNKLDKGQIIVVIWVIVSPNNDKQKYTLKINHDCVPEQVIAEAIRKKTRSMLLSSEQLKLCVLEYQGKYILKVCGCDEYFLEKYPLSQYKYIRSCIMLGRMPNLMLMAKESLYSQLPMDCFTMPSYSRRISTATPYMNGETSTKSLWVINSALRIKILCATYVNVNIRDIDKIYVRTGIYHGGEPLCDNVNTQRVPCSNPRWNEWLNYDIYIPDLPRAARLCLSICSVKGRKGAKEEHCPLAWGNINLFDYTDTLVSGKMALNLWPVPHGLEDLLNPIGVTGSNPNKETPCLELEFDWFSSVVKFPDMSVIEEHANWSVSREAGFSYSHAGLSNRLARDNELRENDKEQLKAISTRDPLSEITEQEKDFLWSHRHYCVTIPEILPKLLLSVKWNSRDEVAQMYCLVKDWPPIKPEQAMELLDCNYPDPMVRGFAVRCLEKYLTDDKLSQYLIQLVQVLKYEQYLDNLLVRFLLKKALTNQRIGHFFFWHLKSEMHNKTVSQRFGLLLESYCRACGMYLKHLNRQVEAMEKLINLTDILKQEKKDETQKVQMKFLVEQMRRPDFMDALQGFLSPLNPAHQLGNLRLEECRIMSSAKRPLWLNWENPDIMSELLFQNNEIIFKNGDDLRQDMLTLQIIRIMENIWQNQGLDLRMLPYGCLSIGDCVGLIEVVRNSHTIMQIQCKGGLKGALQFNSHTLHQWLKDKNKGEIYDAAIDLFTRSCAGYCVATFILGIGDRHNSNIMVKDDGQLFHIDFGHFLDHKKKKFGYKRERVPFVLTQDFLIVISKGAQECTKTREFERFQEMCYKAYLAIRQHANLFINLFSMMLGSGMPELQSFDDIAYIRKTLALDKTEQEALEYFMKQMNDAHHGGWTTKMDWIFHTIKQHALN

Mus musculus [6] = species on record: Mus musculus; assay: animal or person; settings: PC-3, po, 8 h, read-out: INH; remark: listed apart in the source
Mus musculus [7] = species on record: Mus musculus; assay: animal or person; settings: PC-3, po, 4 h, read-out: INH
Mus musculus [8] = species on record: Mus musculus; assay: animal or person; settings: PC-3, po, 24 h, read-out: INH
Mus musculus [9] = species on record: Mus musculus; assay: animal or person; settings: PC-3, po, 4 h, read-out: INH; remark: listed apart in the source
Mus musculus [10] = species on record: Mus musculus; assay: animal or person; settings: PC-3, po, 24 h, read-out: INH; remark: listed apart in the source
Mus musculus [11] = species on record: Mus musculus; assay: animal or person; settings: PC-3, po, 2 h, read-out: INH
Mus musculus [12] = species on record: Mus musculus; assay: animal or person; settings: PC-3, po, 2 h, read-out: INH; remark: listed apart in the source
[13] = Oral bioavailability in rat at 10 mg/kg; format: ADME, organism-based; settings: in vivo
[14] = Tmax in rat at 10 mg/kg, po; format: ADME, organism-based; settings: in vivo
[15] = Cmax in rat at 10 mg/kg, po; format: ADME, organism-based; set-up: dose 10 mg/kg, route oral; settings: in vivo
[16] = Clearance in rat at 2 mg/kg, iv; format: ADME, organism-based; settings: in vivo
[17] = AUC (0 to infinity) in rat at 10 mg/kg, po; format: ADME, organism-based; set-up: dose 10 mg/kg, route oral, time infinity; settings: in vivo
PC-3 [18] = assay: Antitumor activity against human PC3 cells xenografted in mouse assessed as tumor volume reduction at 50 mg/kg, po qd for 21 days relative to control; format: functional; set-up: scale not given: the % may be the effect or the level left
PC-3 [19] = settings: Homo sapiens
PC-3 [20] = settings: Homo sapiens, TDE = time-dependent effect
PC-3 [21] = settings: Homo sapiens; remark: listed apart in the source
PC-3 [22] = assay: Antitumor activity against human PC3 cells xenografted in mouse assessed as tumor volume reduction at 100 mg/kg, po bid with 10 hrs separation between morning and evening doses for 21 days relative to control; format: functional; set-up: scale not given: the % may be the effect or the level left
[23] = Oral bioavailability in rat at 5 mg/kg; format: ADME, organism-based; settings: in vivo
PC-3 [24] = settings: Homo sapiens, TDE = time-dependent effect; remark: listed apart in the source
[25] = Tmax in rat at 5 mg/kg, po; format: ADME, organism-based; settings: in vivo
Salmonella typhi = assay: Mutagenicity in Salmonella typhi by Ames test; format: toxicity, organism-based; settings: salmonella enterica subsp. enterica serovar […]
[26] = Inhibition of CYP450 (unknown origin) up to 10 uM; format: ADME; settings: human
PC-3 [27] = settings: Homo sapiens, TDE = time-dependent effect; remark: listed apart in the source
[28] = target: Vascular endothelial growth factor receptor 3 (Homo sapiens, UniProt P35916); assay: Inhibition of Flt4 (unknown origin)
Chain of Vascular endothelial growth factor receptor 3 (P35916 whole entry): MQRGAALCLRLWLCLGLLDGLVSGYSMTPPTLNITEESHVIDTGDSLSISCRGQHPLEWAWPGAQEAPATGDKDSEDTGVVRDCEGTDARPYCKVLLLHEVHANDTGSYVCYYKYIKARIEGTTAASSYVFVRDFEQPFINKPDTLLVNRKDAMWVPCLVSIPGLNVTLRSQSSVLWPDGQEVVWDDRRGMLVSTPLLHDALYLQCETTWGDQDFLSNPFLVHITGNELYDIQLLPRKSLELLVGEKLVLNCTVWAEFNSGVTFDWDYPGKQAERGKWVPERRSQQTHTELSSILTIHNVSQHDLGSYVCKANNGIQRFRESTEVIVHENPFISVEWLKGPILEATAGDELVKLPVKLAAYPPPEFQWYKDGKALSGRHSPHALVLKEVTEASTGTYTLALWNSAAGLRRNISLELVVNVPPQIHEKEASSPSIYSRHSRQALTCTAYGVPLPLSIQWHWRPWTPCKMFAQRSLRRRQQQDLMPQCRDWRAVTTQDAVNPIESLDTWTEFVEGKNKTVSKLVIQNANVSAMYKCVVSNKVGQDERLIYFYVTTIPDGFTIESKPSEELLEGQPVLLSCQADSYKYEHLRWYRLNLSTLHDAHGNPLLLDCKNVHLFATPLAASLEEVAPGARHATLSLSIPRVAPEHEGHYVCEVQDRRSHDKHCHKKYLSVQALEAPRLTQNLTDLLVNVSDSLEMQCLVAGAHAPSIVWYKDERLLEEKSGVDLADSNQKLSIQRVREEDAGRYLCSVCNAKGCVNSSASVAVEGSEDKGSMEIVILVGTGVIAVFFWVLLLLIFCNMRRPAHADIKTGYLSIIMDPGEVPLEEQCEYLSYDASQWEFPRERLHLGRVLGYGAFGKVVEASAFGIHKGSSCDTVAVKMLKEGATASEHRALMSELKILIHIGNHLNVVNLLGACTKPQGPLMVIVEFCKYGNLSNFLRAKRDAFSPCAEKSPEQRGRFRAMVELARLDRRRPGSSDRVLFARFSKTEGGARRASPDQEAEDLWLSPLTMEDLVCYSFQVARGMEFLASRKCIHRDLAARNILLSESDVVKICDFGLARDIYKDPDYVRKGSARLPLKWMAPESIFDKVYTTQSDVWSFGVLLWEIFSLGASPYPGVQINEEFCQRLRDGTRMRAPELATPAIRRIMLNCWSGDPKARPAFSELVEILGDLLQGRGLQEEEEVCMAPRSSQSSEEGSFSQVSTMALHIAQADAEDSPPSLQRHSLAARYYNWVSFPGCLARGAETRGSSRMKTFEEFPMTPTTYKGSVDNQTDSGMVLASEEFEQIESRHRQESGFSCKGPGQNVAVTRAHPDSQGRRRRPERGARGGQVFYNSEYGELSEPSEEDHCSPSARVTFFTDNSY

[29] = Genotoxicity in mouse erythrocytes by micronucleus test; format: toxicity, cell-based; settings: erythrocyte
PC-3 [30] = assay: Antitumor activity against human PC3 cells xenografted in mouse assessed as tumor volume reduction at 25 mg/kg, po qd for 21 days relative to control; format: functional; set-up: scale not given: the % may be the effect or the level left
[31] = Inhibition of mTORC2 in human PC3 cells assessed as inhibition of AKT phosphorylation at S473 by sandwich immunoassay; format: cell-based; settings: PC-3
PC-3 [32] = assay: Cytotoxicity against human PC3 cells assessed as inhibition of cell proliferation after 3 days by WST1 assay; format: functional, cell-based; settings: PC-3, 72 h
[33] = target: Serine/threonine-protein kinase mTOR (Homo sapiens, UniProt P42345); assay: Inhibition of recombinant mTOR (unknown origin) using GST-p70S6 as substrate after 60 mins by TR-FRET analysis

Structure (SMILES) | pIC50 (cells) | remaining at 1 h [1] | Cmax [2] | AUC(0-inf) [3] | inhibition in vivo at 100 mg/kg (Mus musculus [4]) | pIC50 [5] | inhibition in vivo at 100 mg/kg (Mus musculus [6]) | inhibition in vivo at 100 mg/kg (Mus musculus [7]) | inhibition in vivo at 100 mg/kg (Mus musculus [8]) | inhibition in vivo at 100 mg/kg (Mus musculus [9]) | inhibition in vivo at 100 mg/kg (Mus musculus [10]) | further results
CO[C@H]1CC[C@H](CN2CC(=O)Nc3ncc(-c4ccc(C(C)(C)O)nc4)nc32)CC1 | 6.80 | 77% | 0.7 µM | 7.25 µM·h | 55% | 4.69 | 64% | 80% | 0% | 55% | 0% | –
CO[C@H]1CC[C@@H](N2CC(=O)Nc3ncc(-c4ccc(C(C)(C)O)nc4)nc32)CC1 | 6.48 | – | 2.77 µM | 26.6 µM·h | 59% | 4.95 | 52% | 54% | 70% | 34% | 45% | inhibition in vivo at 100 mg/kg (Mus musculus [11]): 80%; inhibition in vivo at 100 mg/kg (Mus musculus [12]): 72%
O=c1[nH]c2ncc(-c3ccc(-c4nc[nH]n4)cc3)nc2n1CCC1CCOCC1 | – | 93% | – | – | – | – | – | – | – | – | – | bioavailability [13]: 0.85%; Tmax [14]: 60 min; Cmax [15]: 0.024 µM; clearance [16]: 1.92 L/h/kg; AUC(0-inf) [17]: 0.11 µM·h
CO[C@H]1CC[C@H](CN2C(=O)CNc3ncc(-c4ccc(C(C)(C)O)nc4)nc32)CC1 | – | 55% | – | – | – | 5.33 | – | – | – | – | – | –
CO[C@H]1CC[C@@H](CN2CC(=O)Nc3ncc(-c4ccc(C(C)(C)O)nc4)nc32)CC1 | – | 39% | – | – | – | 5.12 | – | – | – | – | – | –
CC(C)(O)c1ccc(-c2cnc3c(n2)N(C2CCOCC2)CC(=O)N3)cn1 | – | – | – | – | – | 5.33 | – | – | – | – | – | –
CO[C@H]1CC[C@@H](CN2C(=O)CNc3ncc(-c4ccc(C(C)(C)O)nc4)nc32)CC1 | – | – | – | – | – | 5.60 | – | – | – | – | – | –
CC(C)(O)c1ccc(-c2cnc3c(n2)N(CC2CCOCC2)CC(=O)N3)cn1 | 6.49 | 100% | – | – | 71% | < 4.52 | 88% | 86% | 83% | 73% | 65% | Activity (PC-3 [18]): 84%; TGI (PC-3 [19]): Dose-dependent effect; inhibition in vivo at 100 mg/kg (Mus musculus [11]): 88%; TGI (PC-3 [20]): tde; inhibition in vivo at 100 mg/kg (Mus musculus [12]): 85%
CC(C)(O)c1ccc(-c2cnc3c(n2)N(CCC2CCOCC2)CC(=O)N3)cn1 | 6.96 | 95% | 1.5 µM | 11 µM·h | 67% | – | 64% | 63% | 0% | 63% | 28% | TGI (PC-3 [21]): Dose-dependent effect; Activity (PC-3 [22]): 72%; bioavailability [23]: 100%; TGI (PC-3 [24]): tde; inhibition in vivo at 100 mg/kg (Mus musculus [11]): 87%; clearance [16]: 1.38 L/h/kg; Tmax [25]: 90 min; inhibition in vivo at 100 mg/kg (Mus musculus [12]): 74%
COCCN1C(=O)CNc2ncc(-c3ccc(C(C)(C)O)nc3)nc21 | 6.21 | 89% | 5.6 µM | 29 µM·h | 84% | 5.21 | 91% | 82% | 91% | 87% | 77% | –
CO[C@H]1CC[C@H](N2CC(=O)Nc3ncc(-c4ccc(C(C)(C)O)nc4)nc32)CC1 | 6.46 | 94% | 6.3 µM | 90 µM·h | 69% | 4.79 | 85% | 90% | 85% | 62% | 61% | Activity (PC-3 [18]): 90%; bioavailability [23]: 70%; TGI (PC-3 [19]): Dose-dependent effect; inhibition in vivo at 100 mg/kg (Mus musculus [11]): 87%; clearance [16]: 0.102 L/h/kg; TGI (PC-3 [20]): tde; inhibition in vivo at 100 mg/kg (Mus musculus [12]): 75%
Cc1cc(-c2nc[nH]n2)ccc1-c1cnc2c(n1)N(CCC1CCOCC1)CC(=O)N2 | – | – | – | – | – | 6.70 | – | – | – | – | – | –
CC(C)(O)c1ccc(-c2cnc3c(n2)N(CC2CCCCC2)CC(=O)N3)cn1 | – | 16% | – | – | – | 4.75 | – | – | – | – | – | –
CO[C@H]1CC[C@H](N2C(=O)CNc3ncc(-c4ccc(C(C)(C)O)nc4)nc32)CC1 [ONATASERTIB] | – | – | 2.9 µM | 26 µM·h | 82% | – | 92% | 91% | 91% | 80% | 86% | Activity (Salmonella typhi): Non-toxic; inhibition (INH) [26]: Not Active; bioavailability [23]: 59%; TGI (PC-3 [27]): tde; pIC50 [28]: 6.19; TGI (PC-3 [19]): Dose-dependent effect; Activity [29]: Non-toxic; clearance [16]: 0.294 L/h/kg; Activity (PC-3 [30]): 87%
O=C1CN(CCC2CCOCC2)c2nc(-c3ccc(-c4nc[nH]n4)cc3)cnc2N1 | – | 61% | – | – | – | – | – | – | – | – | – | Cmax [15]: < 0.00213 µM; clearance [16]: 0.828 L/h/kg
CC(C)(O)c1ccc(-c2cnc3[nH]c(=O)n(CCC4CCOCC4)c3n2)cn1 | – | 91% | 1.8 µM | 4.8 µM·h | – | < 4.52 | – | – | – | – | – | bioavailability [23]: 43%; clearance [16]: 0.9 L/h/kg; Tmax [25]: 30 min; pIC50 [31]: 6.20; pIC50 (PC-3 [32]): 5.63; pIC50 [33]: 7.19
CC(C)(O)c1ccc(-c2cnc3c(n2)N([C@H]2CC[C@@H](O)CC2)C(=O)CN3)cn1 | – | – | – | – | – | 5.55 | – | – | – | – | – | –
O=C1CNc2ncc(-c3ccc(-c4ncn[nH]4)cc3)nc2N1CCC1CCOCC1 | – | 48% | – | – | – | 7.00 | – | – | – | – | – | –
CC(C)(O)c1ccc(-c2cnc3c(n2)N([C@H]2CC[C@H](O)CC2)C(=O)CN3)cn1 | – | – | 2.2 µM | 9.23 µM·h | – | 5.72 | – | – | – | – | – | –
CC(C)(O)c1ccc(-c2cnc3c(n2)N(CC2CCOCC2)C(=O)CN3)cn1 | 6.89 | 83% | 1.6 µM | 9.9 µM·h | 81% | 5.42 | 94% | 93% | 91% | 86% | 80% | –
COCCN1CC(=O)Nc2ncc(-c3ccc(C(C)(C)O)nc3)nc21 | – | – | – | – | – | 4.98 | – | – | – | – | – | –
O=C1CN(CCC2CCOCC2)c2nc(-c3ccc(-c4nc[nH]n4)nc3)cnc2N1 | – | – | – | – | – | 5.80 | – | – | – | – | – | –
Cc1cc(-c2nc[nH]n2)ccc1-c1cnc2c(n1)N(CCC1CCOCC1)C(=O)CN2 | – | – | – | – | – | 6.92 | – | – | – | – | – | –
CC(C)(O)c1ccc(-c2cnc3c(n2)N(CCC2CCOCC2)C(=O)CN3)cn1 | 7.05 | 73% | 1.7 µM | 14 µM·h | 78% | – | 88% | 80% | 59% | 63% | 69% | Activity (PC-3 [18]): 59%; bioavailability [23]: 58%; TGI (PC-3 [19]): Dose-dependent effect; inhibition in vivo at 100 mg/kg (Mus musculus [11]): 71%; clearance [16]: 0.54 L/h/kg; Tmax [25]: 36 min; TGI (PC-3 [20]): tde; inhibition in vivo at 100 mg/kg (Mus musculus [12]): 82%
CC(C)(O)c1ccc(-c2cnc3c(n2)N(C2CCOCC2)C(=O)CN3)cn1 | – | – | – | – | – | 5.49 | – | – | – | – | – | –
